Reference: patent US20110245280A1, “FRUGICIDAL MIXTURES BASED ON TRIAZOLES” (BASF AKTIENGESELLSCHAFT, priority 2002, published 2011)

System: mildew of wheat (Erysiphe [syn. Blumeria] graminis form a specialis tritici)
Assay: Activity against mildew of wheat, protective spray on potted wheat seedlings (cultivar Kanzler), greenhouse
Format: in vivo
Settings: wheat leaves, 7 days after inoculation
Protocol: The active compounds, separately or together, were formulated as a 10% emulsion in a mixture of 63% by weight of cyclohexanone and 27% by weight of emulsifier, and diluted with water to the desired concentration.
Evaluation was carried out by determining the infected leaf areas in percent. These percentages were converted into efficacies. The efficacy (W) was calculated as follows using Abbot's formula:
[formula] • α corresponds to the fungal infection of the treated plants in % and • β corresponds to the fungal infection of the untreated (control) plants in %
An efficacy of 0 means that the infection level of the treated plants corresponds to that of the untreated control plants; an efficacy of 100 means that the treated plants were not infected.
The expected efficacies of the mixtures of the active compounds were determined using Colby's formula [R. S. Colby, Weeds 15, 20-22 (1967)] and compared with the observed efficacies.
Colby's formula: E=x+y−x·y/100 • E expected efficacy, expressed in % of the untreated control, when using the mixture of the active compounds A and B at the concentrations a and b • x efficacy, expressed in % of the untreated control, when using active compound A at a concentration of a • y efficacy, expressed in % of the untreated control, when using active compound B at a concentration of b.
Leaves of wheat seedlings of the cultivar “Kanzler” grown in pots were sprayed to run-off point with an aqueous suspension having the concentration of active compounds stated below. The suspension or emulsion was prepared from a stock solution made using 10% of active compound in a mixture comprising 70% of cyclohexanone, 20% of wetting agent and 10% of emulsifier. 24 hours after the spraycoating had dried on, the leaves dusted with spores of mildew of wheat (Erysiphe [syn. Blumeria] graminis form a specialis tritici). The test plants were then placed in a greenhouse at 20-24° C. and 60-90% relative atmospheric humidity.
After 7 days, the extent of the development of the mildew was determined visually in % infection of the entire leaf area.
The visually determined values for the percentage of diseased leaf area were converted into efficacies in % of the untreated control. An efficacy of 0 means the same disease level as in the untreated control, an efficacy of 100 means a disease level of 0%. The expected efficacies for the active compound combinations were determined using Colby's formula mentioned above and compared with the observed efficacies.

[1] = 0.06 ppm active compound in the spray liquor
[2] = 0.25 ppm active compound in the spray liquor
[3] = 1 ppm active compound in the spray liquor
[4] = 4 ppm active compound in the spray liquor

Row | Structure (SMILES) | Efficacy in % of the untreated control (0.015 ppm active compound in the spray liquor) | Efficacy in % of the untreated control [1] | Efficacy in % of the untreated control [2] | Efficacy in % of the untreated control [3] | Efficacy in % of the untreated control [4]
1 | OC(Cc1ccccc1Cl)(Cn1nc[nH]c1=S)C1(Cl)CC1 (stereo not drawn) [Compound I, 2-[2-(1-chlorocyclopropyl)-3-(2-chlorophenyl)-2-hydroxypropyl]-2,4-dihydro-[1,2,4]-triazole-3-thione] | 0% | 0% | 0% | 0% | 56%
2 | CCCCC(C#N)(Cn1cncn1)c1ccc(Cl)cc1 (stereo not drawn) [Compound XIII, myclobutanil] |  | 0% |  | 11% | 56%
3 | CC1(C)CCC(Cc2ccc(Cl)cc2)C1(O)Cn1cncn1 (stereo not drawn) [Compound III, metconazole] |  |  | 11% |  | 
4 | Fc1ccc(C2(Cn3cncn3)OC2c2ccccc2Cl)cc1 (stereo not drawn) [Compound II, epoxiconazole] |  | 11% | 33% | 44% | 
